Experimental findings from patent US12239632B2, “Asymmetric allyl tryptamines” (Alexander Shulgin Research Institute, Inc., priority 2021, dated 2025) are described below.

Usually EC50 stands for the concentration needed to bring the measured effect to its halfway point.

The target of one assay is T1, DAT (Homo sapiens, UniProt Q01959).
T1 construct: expressed in transfected cells
Put plainly: Neurotransmitter transporter uptake assay, DAT blocker mode. It is filed as cell-based.

Another assay concerns the target T2, HTR1B (Homo sapiens, UniProt P28222).
T2 construct: expressed in transfected cells
Nature of the assay: In vitro functional activity, HTR1B agonist mode. It is filed as cell-based.

The next assay concerns the target T3, ADRA2A (Homo sapiens, UniProt P08913).
T3 construct: expressed in transfected cells
T3 sequence (P08913 1-465): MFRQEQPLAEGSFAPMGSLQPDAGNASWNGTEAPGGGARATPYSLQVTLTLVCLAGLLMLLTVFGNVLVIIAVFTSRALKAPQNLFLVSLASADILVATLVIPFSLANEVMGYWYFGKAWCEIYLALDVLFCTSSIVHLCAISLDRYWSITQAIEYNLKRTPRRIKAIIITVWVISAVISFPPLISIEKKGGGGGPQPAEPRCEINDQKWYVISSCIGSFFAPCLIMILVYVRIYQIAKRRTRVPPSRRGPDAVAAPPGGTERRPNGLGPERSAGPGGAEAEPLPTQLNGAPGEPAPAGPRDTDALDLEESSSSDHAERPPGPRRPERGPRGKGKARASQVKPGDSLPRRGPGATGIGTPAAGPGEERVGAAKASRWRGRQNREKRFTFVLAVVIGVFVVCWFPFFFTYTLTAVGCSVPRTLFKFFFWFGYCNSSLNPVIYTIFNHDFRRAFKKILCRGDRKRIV
Nature of the assay: In vitro functional activity, ADRA2A antagonist mode. It is filed as cell-based.

The target of a further assay is T4, SERT (Homo sapiens, UniProt P31645).
T4 construct: expressed in transfected cells
Put plainly: cell-based. The conditions noted are these: blocker mode; read-out: EC50/IC50, SERT (Blocker).

In another assay the target is T5, HTR6 (Homo sapiens, UniProt P50406).
T5 construct: expressed in transfected cells
Nature of the assay: PathHunter beta-Arrestin assay, HTR6 agonist mode. It is filed as cell-based.

The target in another assay is T6, NET (Homo sapiens, UniProt P23975).
T6 construct: expressed in transfected cells
Nature of the assay: Neurotransmitter transporter uptake assay, NET blocker mode. It is filed as cell-based.

A further assay addresses T7, ADRA1A (Homo sapiens, UniProt P35348).
T7 construct: expressed in transfected cells
T7 sequence (P35348 1-466): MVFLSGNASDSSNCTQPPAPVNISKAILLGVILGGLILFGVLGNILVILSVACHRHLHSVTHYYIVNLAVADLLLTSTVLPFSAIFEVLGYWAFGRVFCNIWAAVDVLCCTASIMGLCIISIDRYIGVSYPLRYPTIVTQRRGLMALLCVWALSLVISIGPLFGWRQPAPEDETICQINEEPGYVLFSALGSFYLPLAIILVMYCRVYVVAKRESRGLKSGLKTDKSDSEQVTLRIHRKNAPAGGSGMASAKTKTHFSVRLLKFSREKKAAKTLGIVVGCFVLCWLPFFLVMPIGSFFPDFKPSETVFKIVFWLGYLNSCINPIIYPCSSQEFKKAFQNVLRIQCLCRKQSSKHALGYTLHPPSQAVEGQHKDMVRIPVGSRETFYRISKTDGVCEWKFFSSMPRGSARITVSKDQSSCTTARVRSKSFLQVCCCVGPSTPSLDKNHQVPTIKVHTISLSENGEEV
Put plainly: In vitro functional activity, ADRA1A antagonist mode. It is filed as cell-based.

In assay [1] the target is T8, HTR2A (Homo sapiens, UniProt P28223).
T8 construct: expressed in transfected cells
Put plainly: Calcium mobilization assay, HTR2A antagonist mode. It is filed as cell-based. In general terms: Calcium flux is commonly read through the fluorescence of an indicator in the cells.
Method: Cell lines were expanded from freezer stocks and seeded into multi-well microplates. Then, the plates were incubated at 37° C. for an appropriate amount of time and loaded with Dye Loading buffer. […] Activity was measured on a FLIPR Tetra. Calcium mobilization was monitored for 2 minutes.

A further assay has as its target T9, HTR1A (Homo sapiens, UniProt P08908).
T9 construct: expressed in transfected cells
T9 sequence (P08908 1-422): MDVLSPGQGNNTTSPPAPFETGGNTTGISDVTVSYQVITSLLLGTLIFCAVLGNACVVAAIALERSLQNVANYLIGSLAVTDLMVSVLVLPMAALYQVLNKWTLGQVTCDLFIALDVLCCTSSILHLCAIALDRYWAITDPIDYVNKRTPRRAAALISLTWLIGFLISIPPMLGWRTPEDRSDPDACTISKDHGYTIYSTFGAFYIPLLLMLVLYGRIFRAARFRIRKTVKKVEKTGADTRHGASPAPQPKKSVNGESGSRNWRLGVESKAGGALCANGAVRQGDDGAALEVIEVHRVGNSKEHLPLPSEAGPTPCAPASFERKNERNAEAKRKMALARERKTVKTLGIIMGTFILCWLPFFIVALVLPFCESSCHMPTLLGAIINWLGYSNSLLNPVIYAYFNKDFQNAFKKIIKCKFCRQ
Put plainly: In vitro functional activity, HTR1A agonist mode. It is filed as cell-based.

The target in a further assay is T10, NAV1.5 (Homo sapiens, UniProt Q14524).
T10 construct: expressed in transfected cells
Put plainly: FLIPR membrane potential ion channel assay, NAV1.5 blocker. It is filed as cell-based.

Assay [2] deals with T8, HTR2A. Nature of the assay: Calcium mobilization assay, HTR2A agonist mode. It is filed as cell-based. The conditions noted are these: for agonist activity at HTR2A: agonist mode.
Method: (§1) Compound activity was analyzed using CBIS data analysis suite (ChemInnovation, CA). For agonist mode assays, percentage activity was calculated using the following formula: % Activity=100%×(mean RFU of test sample−mean RFU of vehicle control)/(mean MAX RFU control ligand −mean RFU of vehicle control).
Another assay addresses T11, HRH1 (Homo sapiens, UniProt P35367).
T11 construct: expressed in transfected cells
Nature of the assay: cell-based. The conditions noted are these: antagonist mode; for IC50: read-out: EC50/IC50, HRH1 (Antagonist). It is filed as cell-based.

The next assay has as its target T12, MAOA (Homo sapiens, UniProt P21397).
T12 construct: purchased Sigma
T12 sequence (P21397 1-527): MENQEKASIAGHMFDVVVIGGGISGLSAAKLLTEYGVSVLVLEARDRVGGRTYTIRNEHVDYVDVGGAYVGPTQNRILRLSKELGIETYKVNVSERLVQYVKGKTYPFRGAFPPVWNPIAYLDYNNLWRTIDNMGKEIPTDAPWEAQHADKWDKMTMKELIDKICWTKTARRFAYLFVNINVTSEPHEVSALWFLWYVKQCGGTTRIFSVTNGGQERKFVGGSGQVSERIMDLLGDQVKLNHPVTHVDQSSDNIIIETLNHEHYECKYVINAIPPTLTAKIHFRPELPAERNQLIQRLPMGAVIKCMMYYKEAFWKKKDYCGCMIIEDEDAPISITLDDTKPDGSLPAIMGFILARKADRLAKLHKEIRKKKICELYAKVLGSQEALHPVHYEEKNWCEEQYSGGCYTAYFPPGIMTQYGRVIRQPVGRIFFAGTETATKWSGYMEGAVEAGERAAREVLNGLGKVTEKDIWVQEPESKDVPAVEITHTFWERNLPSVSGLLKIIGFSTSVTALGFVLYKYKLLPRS
Put plainly: MAO-A enzyme assay (kynuramine substrate). It is filed as biochemical.

Assay [3] concerns the target T13, HTR2B (Homo sapiens, UniProt P41595).
T13 construct: expressed in transfected cells
Put plainly: Calcium mobilization assay, HTR2B antagonist mode. It is filed as cell-based. The method, then:
Activation of the GPCR results in the release of calcium from intracellular stores and an increase in dye fluorescence that can be measured.
Cell lines were expanded from freezer stocks and seeded into multi-well microplates. Then, the plates were incubated at 37° C. for an appropriate amount of time and loaded with Dye Loading buffer. To determine compound agonist activity, cells were incubated with the sample to induce a response, and HBSS/20 mM Hepes was added using a FLIPR Tetra (MDS). Activity was measured on a FLIPR Tetra. Calcium mobilization was monitored for 2 minutes.
To determine compound antagonist activity, cells were pre-incubated with the sample followed by an post-incubation administration of the compound with 3×EC80 agonist using FLIPR. Compound antagonist activity was measured on a FLIPR Tetra (MDS) and calcium mobilization was monitored for 2 minutes.
For antagonist mode assays, percentage inhibition was calculated using the following formula: % Inhibition=100%×(1−(mean RFU of test sample−mean RFU of vehicle control)/(mean RFU of EC80 control−mean RFU of vehicle control)).

A further assay addresses T14, CAV1.2 (Homo sapiens, UniProt Q13936).
T14 construct: expressed in transfected cells
Put plainly: FLIPR membrane potential ion channel assay, CAV1.2 blocker. It is filed as cell-based.

Another assay deals with T15, DRD2S (Homo sapiens, UniProt P14416).
T15 construct: expressed in transfected cells
Nature of the assay: HitHunter cAMP assay, DRD2S agonist mode. It is filed as cell-based. (Cyclic AMP is a second messenger, typically raised through Gs and lowered through Gi signalling.)

The next assay deals with T16, hERG (Homo sapiens, UniProt Q12809).
T16 construct: expressed in transfected cells
Put plainly: FLIPR membrane potential ion channel assay, hERG blocker. It is filed as cell-based. (hERG is a cardiac potassium channel; its block is linked to QT prolongation.)

The target of assay [4] is T13, HTR2B. Put plainly: Calcium mobilization assay, HTR2B agonist mode. It is filed as cell-based.
Method: as §1

Counter-ions that a name gives are not always drawn.

T10 sequence (Q14524 whole entry): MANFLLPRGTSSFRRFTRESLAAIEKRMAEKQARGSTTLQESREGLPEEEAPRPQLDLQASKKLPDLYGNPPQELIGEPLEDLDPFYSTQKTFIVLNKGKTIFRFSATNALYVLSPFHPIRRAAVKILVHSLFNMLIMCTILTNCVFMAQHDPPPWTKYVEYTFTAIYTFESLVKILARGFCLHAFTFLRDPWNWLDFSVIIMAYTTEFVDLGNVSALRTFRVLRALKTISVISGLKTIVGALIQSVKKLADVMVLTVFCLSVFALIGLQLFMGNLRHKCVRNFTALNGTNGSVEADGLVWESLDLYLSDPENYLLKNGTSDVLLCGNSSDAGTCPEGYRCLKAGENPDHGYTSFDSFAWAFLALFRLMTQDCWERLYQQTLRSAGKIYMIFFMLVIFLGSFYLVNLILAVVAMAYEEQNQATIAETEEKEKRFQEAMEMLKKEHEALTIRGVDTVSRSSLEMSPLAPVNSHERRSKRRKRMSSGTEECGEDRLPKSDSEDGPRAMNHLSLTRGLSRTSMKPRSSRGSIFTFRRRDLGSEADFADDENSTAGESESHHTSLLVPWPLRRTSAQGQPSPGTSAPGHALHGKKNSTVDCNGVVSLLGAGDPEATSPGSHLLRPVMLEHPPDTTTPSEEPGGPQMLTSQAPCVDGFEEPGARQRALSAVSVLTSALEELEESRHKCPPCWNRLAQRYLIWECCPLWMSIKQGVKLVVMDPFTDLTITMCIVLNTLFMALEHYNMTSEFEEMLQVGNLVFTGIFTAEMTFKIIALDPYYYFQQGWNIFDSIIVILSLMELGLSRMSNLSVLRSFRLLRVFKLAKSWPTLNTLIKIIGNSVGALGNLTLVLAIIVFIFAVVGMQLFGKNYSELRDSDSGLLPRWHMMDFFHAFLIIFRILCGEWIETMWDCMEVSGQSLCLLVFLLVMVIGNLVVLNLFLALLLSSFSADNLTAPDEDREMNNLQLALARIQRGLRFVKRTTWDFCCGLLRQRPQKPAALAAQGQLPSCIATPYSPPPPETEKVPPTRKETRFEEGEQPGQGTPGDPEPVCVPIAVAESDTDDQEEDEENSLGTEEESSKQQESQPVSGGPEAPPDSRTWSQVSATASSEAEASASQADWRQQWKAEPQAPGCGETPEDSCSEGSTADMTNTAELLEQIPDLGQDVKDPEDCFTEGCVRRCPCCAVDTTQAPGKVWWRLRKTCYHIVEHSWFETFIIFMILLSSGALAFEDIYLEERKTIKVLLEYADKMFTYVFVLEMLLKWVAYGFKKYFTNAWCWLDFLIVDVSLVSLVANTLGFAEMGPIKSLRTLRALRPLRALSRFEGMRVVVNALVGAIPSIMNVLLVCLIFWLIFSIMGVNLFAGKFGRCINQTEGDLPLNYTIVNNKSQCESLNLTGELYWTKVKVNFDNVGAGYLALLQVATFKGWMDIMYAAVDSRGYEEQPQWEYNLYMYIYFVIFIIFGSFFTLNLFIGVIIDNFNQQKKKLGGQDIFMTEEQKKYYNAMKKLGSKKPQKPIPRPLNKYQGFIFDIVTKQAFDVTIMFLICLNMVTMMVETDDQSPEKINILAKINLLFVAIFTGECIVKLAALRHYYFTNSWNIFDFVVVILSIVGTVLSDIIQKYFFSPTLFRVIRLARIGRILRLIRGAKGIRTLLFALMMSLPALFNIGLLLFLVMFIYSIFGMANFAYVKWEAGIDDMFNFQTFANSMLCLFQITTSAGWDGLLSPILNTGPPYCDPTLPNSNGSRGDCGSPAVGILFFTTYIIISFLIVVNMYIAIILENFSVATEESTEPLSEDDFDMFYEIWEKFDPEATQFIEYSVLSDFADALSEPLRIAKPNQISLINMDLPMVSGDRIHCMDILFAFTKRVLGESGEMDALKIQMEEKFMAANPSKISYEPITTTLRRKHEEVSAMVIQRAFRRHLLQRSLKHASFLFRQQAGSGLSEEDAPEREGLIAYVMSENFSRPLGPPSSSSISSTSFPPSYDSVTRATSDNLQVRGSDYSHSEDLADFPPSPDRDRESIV
T5 sequence (P50406 whole entry): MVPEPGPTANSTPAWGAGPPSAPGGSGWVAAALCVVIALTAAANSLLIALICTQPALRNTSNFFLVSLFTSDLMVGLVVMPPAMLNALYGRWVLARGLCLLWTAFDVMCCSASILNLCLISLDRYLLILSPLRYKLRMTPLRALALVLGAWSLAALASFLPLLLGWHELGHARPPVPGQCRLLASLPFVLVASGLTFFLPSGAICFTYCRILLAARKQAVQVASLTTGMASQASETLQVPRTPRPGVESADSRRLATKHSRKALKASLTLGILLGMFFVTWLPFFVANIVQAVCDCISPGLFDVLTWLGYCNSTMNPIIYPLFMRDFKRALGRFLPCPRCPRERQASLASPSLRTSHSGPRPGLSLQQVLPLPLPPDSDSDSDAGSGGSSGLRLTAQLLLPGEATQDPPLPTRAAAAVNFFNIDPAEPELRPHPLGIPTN
T8 sequence (P28223 whole entry): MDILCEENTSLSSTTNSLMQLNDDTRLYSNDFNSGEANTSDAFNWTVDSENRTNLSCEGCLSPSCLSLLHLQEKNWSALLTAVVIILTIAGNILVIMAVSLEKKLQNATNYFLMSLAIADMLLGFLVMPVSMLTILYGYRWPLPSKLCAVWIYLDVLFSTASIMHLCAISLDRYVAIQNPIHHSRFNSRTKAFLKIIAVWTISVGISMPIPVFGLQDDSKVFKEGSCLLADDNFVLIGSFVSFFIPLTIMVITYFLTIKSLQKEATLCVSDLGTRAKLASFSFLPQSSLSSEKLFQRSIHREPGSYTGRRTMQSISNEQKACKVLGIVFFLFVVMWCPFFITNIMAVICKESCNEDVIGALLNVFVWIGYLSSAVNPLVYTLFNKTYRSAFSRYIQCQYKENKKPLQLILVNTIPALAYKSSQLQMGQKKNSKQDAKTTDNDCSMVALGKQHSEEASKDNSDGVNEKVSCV
T2 sequence (P28222 whole entry): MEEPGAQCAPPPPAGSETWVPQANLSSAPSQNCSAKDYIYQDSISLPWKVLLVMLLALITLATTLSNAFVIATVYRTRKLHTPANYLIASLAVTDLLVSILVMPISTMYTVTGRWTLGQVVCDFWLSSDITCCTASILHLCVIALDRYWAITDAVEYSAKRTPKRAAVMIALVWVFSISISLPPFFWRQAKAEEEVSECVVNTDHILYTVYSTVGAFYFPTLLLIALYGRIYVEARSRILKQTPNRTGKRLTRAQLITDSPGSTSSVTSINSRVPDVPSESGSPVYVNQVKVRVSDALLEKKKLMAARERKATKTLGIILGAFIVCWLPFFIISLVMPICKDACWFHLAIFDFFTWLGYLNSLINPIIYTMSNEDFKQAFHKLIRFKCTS
T15 sequence (P14416 1-414 isoform P14416-2): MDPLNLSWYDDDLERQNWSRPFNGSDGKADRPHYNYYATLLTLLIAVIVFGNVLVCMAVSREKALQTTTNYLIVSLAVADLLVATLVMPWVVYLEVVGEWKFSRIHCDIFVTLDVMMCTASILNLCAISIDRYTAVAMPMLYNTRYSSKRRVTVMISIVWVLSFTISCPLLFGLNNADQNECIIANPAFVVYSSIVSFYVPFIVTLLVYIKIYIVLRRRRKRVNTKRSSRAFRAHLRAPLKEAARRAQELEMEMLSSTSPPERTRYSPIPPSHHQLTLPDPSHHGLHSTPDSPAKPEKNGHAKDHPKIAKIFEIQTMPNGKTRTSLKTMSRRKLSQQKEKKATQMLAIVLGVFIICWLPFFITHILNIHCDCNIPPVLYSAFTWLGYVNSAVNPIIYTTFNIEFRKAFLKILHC
T16 sequence (Q12809 whole entry): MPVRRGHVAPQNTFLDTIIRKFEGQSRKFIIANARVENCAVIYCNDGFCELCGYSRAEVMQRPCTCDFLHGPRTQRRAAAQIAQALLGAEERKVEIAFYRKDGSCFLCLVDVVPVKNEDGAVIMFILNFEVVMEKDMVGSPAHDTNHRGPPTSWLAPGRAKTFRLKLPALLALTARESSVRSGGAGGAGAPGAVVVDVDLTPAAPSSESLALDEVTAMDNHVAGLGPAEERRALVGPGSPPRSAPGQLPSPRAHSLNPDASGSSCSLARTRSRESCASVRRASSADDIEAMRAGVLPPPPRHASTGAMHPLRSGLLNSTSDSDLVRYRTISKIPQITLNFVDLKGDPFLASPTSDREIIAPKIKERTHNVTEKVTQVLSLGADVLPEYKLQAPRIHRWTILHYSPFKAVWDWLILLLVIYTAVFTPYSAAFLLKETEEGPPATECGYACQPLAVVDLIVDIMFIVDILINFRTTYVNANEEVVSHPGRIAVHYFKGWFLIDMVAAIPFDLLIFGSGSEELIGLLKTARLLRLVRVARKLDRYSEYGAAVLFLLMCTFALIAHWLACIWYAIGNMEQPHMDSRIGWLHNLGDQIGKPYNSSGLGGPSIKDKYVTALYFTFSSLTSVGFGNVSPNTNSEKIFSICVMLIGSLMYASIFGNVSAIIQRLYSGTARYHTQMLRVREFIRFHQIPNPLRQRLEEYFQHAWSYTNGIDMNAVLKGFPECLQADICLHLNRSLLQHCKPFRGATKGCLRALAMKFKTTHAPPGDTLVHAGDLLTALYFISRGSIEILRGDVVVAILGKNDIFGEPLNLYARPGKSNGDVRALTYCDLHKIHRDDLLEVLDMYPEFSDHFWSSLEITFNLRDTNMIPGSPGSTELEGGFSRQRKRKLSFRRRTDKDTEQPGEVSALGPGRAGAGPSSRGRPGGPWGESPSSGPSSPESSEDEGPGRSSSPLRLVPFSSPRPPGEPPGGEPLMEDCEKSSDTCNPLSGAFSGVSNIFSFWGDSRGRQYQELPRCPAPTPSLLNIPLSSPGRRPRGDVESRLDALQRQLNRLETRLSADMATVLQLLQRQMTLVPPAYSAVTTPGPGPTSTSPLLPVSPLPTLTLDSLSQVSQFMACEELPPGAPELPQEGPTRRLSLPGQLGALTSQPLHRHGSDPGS
Method for ADRA1A: (§2) The assay monitors the activation of a GPCR via Gi and Gs secondary messenger signaling, using ß-Gal as a functional reporter. […] To determine Gi/Gs agonism, media was aspirated from cells and replaced with 15 μL 2:1 HBSS/10 mM HEPES:cAMP XS+Ab reagent. Concentrated (4×) test compound in assay buffer was added to cells and incubated at 37° C. or room temperature for 30 or 60 minutes. For Gi agonist activation, cells were incubated with EC80 forskolin in addition to a test compound. Vehicle concentration was 1%.
Method for ADRA2A: as §2
Method for CAV1.2: (§3) Methods—Ion Channel Assay: Membrane potential changes were measured using the FLIPR® Membrane potential Assay Kit. A fluorescent indicator dye in combination with a quencher was used to reflect real-time membrane potential changes associated with ion channel activation and ion transporter proteins. Calcium channel CAV1.2, potassium channel hERG, and sodium channel NAV1.5 were tested.
(§4) To determine agonist and antagonist activity, cell lines were expanded from freezer stocks, seeded into multi-well microplates, and incubated at 37° C. Cells were then loaded with dye and incubated again.
(§5) For agonist determination, cells were incubated with the sample a different dilutions to induce a response. For antagonist determination, cells were pre-incubated with the sample at different dilutions. Following dye administration, the sample was added to the cells in the presence of EC80 agonist and then re-incubated at room temperature in the dark.
(§6) For antagonist mode assays, percentage inhibition was calculated using the following formula: % Inhibition=100%×(1−(mean RLU of test sample−mean RLU of vehicle control)/(mean RLU of EC80 control−mean RLU of vehicle control)).
Method for DAT: (§7) Methods—Monoamine Transporter Assay: Neurotransmitter uptake via transporters was measured using the Neurotransmitter Transporter Uptake Assay Kit from Molecular Devices. […] Increased intracellular fluorescence intensity following uptake of biogenic amine neurotransmitters via transporters is measured and can be run in a kinetic or endpoint mode.
(§8) Compound was added and the mixture was incubated. Following compound incubation, dye was added to the wells and the plate was re-incubated. Microplates were then transferred to a PerkinElmer Envision™ instrument for fluorescence signal detection.
(§9) Compound activity was analyzed using CBIS data analysis (ChemInnovation, CA). For blocker mode assays, percentage inhibition was calculated using the following formula: % Inhibition=100%×(1−(mean RLU of test sample−mean RLU of vehicle control)/(mean RLU of positive control−mean RLU of vehicle control)).
Method for DRD2S: as §2
Compound activity was analyzed using CBIS data analysis suite (ChemInnovation, CA). For Gs agonist mode assays, percentage activity was calculated using the following formula: % Activity=100%×(mean RLU of test sample−mean RLU of vehicle control)/(mean RLU of MAX control−mean RLU of vehicle control).
For Gi agonist mode assays, percentage activity was calculated using the following formula: % Activity=100%×(1−(mean RLU of test sample−mean RLU of MAX control)/(mean RLU of vehicle control−mean RLU of MAX control)).
Method for HRH1: (§10) Such activity was determined to assess potential neuromodulatory activity and safety liabilities.
Method for HTR1A: as §10
Method for HTR1B: as §10
Method for HTR6: The assay monitors restoration of ß-galactosidase (β-Gal) as a marker of GPCR activation and recruitment of β-Arrestin to the receptor.
3.5 μL of concentrated sample was added to cells and incubated at 37° C. or room temperature for 90 to 180 minutes. Vehicle concentration was 1%.
Assay signal was generated through a single addition of 50% v/v of PathHunter Detection reagent cocktail, followed by a one hour incubation at room temperature. Microplates were read following signal generation with a plate reader set to detect chemiluminescent signals. Compound activity was analyzed using CBIS data analysis suite (ChemInnovation, CA).
Method for MAOA: Methods—Enzyme Assays: Enzymatic activity was determined by measuring either the consumption of substrate or production of product over time. For MAO-A (Sigma), enzyme and test compound were preincubated for 15 minutes at 37° C. before substrate addition. The reaction was initiated by addition of kynuramine and incubated at 37° ° C. for 30 minutes. The reaction was terminated by addition of NaOH. The amount of 4-hydroxyquinoline formed was determined through spectrofluorimetric readout with the emission detection at 380 nm and excitation wavelength 310 nm.
Method for NAV1.5: as §3, §4, §5, §6
Method for NET: as §7, §8, §9
Method for SERT: as §7, §8, §9
Method for hERG: as §3, §4, §5, §6

Turning to `C=CCN(CCc1c[nH]c2ccc(OC)cc12)C(C)C` [ASR-3001, N-isopropyl-N-(2-(5-methoxy-1H-indol-3-yl)ethyl)prop-2-en-1-amine hydrochloride], the IC50 on DAT was over 10 µM; at ADRA2A it was over 10 µM; at SERT, 6.84 µM; on NET, over 10 µM; at ADRA1A, over 10 µM; on HTR2A [1], 0.0646 µM. The IC50 was over 10 µM against NAV1.5; over 10 µM at HRH1; over 10 µM at MAOA; 0.0511 µM at HTR2B [3]; over 10 µM against CAV1.2; over 10 µM at hERG. Moreover, the EC50 at HTR1B was 0.0468 µM; on HTR6, 0.42 µM; on HTR1A, 0.642 µM; on HTR2A [2] it was 0.00985 µM; on DRD2S, over 10 µM; at HTR2B [4] it was 0.0874 µM. At HTR2A [2], the “agonist activity at HTR2A” value is listed as “potent agonist activity”.

Take `C=CCN(CCc1c[nH]c2ccccc12)C(C)C` [ASR-3003, N-(2-(1H-indol-3-yl)ethyl)-N-isopropylprop-2-en-1-amine hydrochloride]: the IC50 was over 10 µM on DAT; 3.72 µM against ADRA2A; 2.37 µM at SERT; over 10 µM against NET; over 10 µM at ADRA1A; 1.41 µM at HTR2A [1]. For the same compound, the IC50 at NAV1.5 is over 10 µM; at HRH1 it was 6.29 µM; against MAOA it was over 10 µM; on HTR2B [3], 0.507 µM; against CAV1.2 it was over 10 µM; at hERG, over 10 µM. For the same compound, the EC50 on HTR1B was 0.813 µM; on HTR6, 4.26 µM; on HTR1A it was over 10 µM; at HTR2A [2] it was 0.462 µM; on DRD2S, 0.183 µM; on HTR2B [4], 2.54 µM. Further, the “agonist activity at HTR2A” value at HTR2A [2] was “potent agonist activity”. The “antagonistic effects at histamine receptor H1” value on HRH1 is on record as “antagonistic effects”. Also, the “agonistic activity for dopamine receptor D2 short isoform” value on DRD2S (agonist mode) was “agonistic activity”. Also, the “potency for DRD2S” value on DRD2S (agonist mode) was “nanomolar level”.

For the compound `C=CCN(CCc1c(C)[nH]c2ccccc12)C(C)C` [ASR-3002, N-isopropyl-N-(2-(2-methyl-1H-indol-3-yl)ethyl)prop-2-en-1-amine hydrochloride], the IC50 is over 10 µM against DAT; 0.383 µM at ADRA2A; over 10 µM on SERT; over 10 µM against NET; 8.52 µM against ADRA1A; 4.13 µM at HTR2A [1]. In addition, the IC50 against NAV1.5 was over 10 µM; on HRH1, over 10 µM; against MAOA it was over 10 µM; at HTR2B [3], 0.498 µM; against CAV1.2, over 10 µM; against hERG, over 10 µM. For the same compound, the EC50 was 4.95 µM on HTR1B; 1.68 µM on HTR6; over 10 µM on HTR1A; 2.6 µM at HTR2A [2]; 4.48 µM at DRD2S; 1.28 µM at HTR2B [4]. Also, on HTR2A [2], the “agonist activity at HTR2A” value is given as “potent agonist activity”. Moreover, the “agonistic activity for dopamine receptor D2 short isoform” value at DRD2S (agonist mode) was “agonistic activity”.
